Measurements taken from ChEMBL document CHEMBL1125820, “Structure-activity relationship of mutagenic aromatic and heteroaromatic nitro compounds. Correlation with molecular orbital energies and hydrophobicity” (J Med Chem, 1991).

Columns and labels:
Salmonella typhimurium = experiment: Mutagenic activity in an Ames test on Salmonella Typhimurium TA98; Activity is log of revertants/nmol; type: functional, Salmonella enterica subsp. enterica serovar Typhimurium; parameters: scale not given here
[1] = Partition coefficient (logP); details: octanol/water

Compound | Activity (Salmonella typhimurium) | logP [1]
Cc1ccc2cccc([N+](=O)[O-])c2n1 | -2.7 | 1.99
O=[N+]([O-])c1cc2ccc3cccc4ccc(c1)c2c34 | 3.35 | 4.69
O=[N+]([O-])c1ccc2ccc3ccc(O)c4ccc1c2c34 | 1.49 | 4.19
O=[N+]([O-])c1ccc2c(ccc3ccccc32)c1 | 2.11 | 4.23
O=[N+]([O-])c1cccc2[nH]ccc12 |  | 2.13
O=[N+]([O-])c1ccc2c3c(ccc([N+](=O)[O-])c13)-c1ccccc1-2 | 3.62 | 4.44
O=[N+]([O-])C1=Cc2cc3cc4ccccc4cc3c3cccc1c23 | 0.67 | 5.07
O=C(/C=C/c1ccc([N+](=O)[O-])o1)N/N=C/c1ccc([N+](=O)[O-])o1 | 2.45 | 2.79
O=[N+]([O-])c1cccc(Cl)c1Cl | -1.51 | 3.05
O=[N+]([O-])C1=Cc2cccc3c2c1cc1cc2ccccc2cc13 | 0.92 | 5.07
O=C(/C=C/c1ccc([N+](=O)[O-])cc1)c1ccc([N+](=O)[O-])cc1 | -1.42 | 2.73
CN1Cc2cccc([N+](=O)[O-])c2N1 | 0.23 | 1.77
O=[N+]([O-])c1c2c(c3ccc4cccc5ccc1c3c45)CCCC2 |  | 6.57
O=[N+]([O-])c1ccc(F)cc1[N+](=O)[O-] | -1.84 | 1.89
O=[N+]([O-])C1=CC2Nc3ccc([N+](=O)[O-])cc3NC2C=C1 (stereo not drawn) | 4.34 | 2.29
O=[N+]([O-])c1ccc2[nH]c3ccccc3c2c1 | -0.7 | 3.51
O=[N+]([O-])c1nc2ccccc2[nH]1 | 0 | 1.59
O=[N+]([O-])c1cc(Cl)ccc1Cl | -1.54 | 2.9
O=[N+]([O-])c1ccc2c3c(cccc13)C=C2 | 1.91 | 3.36
O=[N+]([O-])c1c2c(cc3ccccc13)C(O)C(O)C=C2 (stereo not drawn) |  | 3.4
O=[N+]([O-])c1cccc2ccccc12 | -0.61 | 3.19
O=[N+]([O-])c1ccc(F)c(Cl)c1 | -1.21 | 2.74
O=[N+]([O-])c1ccc2cccc3c2c1CC3 | 1 | 3.81
O=[N+]([O-])c1ccc(F)c([N+](=O)[O-])c1 | 1.2 | 1.49
O=[N+]([O-])c1cccc2c1-c1cccc3c([N+](=O)[O-])ccc-2c13 | 5.09 | 4.44
O=[N+]([O-])c1ccc2c(c1)Cc1cc(Br)ccc1-2 | 3.06 | 4.83

Compound | Activity (Salmonella typhimurium) | logP [1]
O=[N+]([O-])c1cc2c3c(cc([N+](=O)[O-])cc3c1)-c1ccccc1-2 | 2.32 | 4.44
O=[N+]([O-])c1ccc2c(c1)Cc1cc(O)ccc1-2 | 1.68 | 3.43
O=[N+]([O-])c1cc2ccccc2c2ccc3ccccc3c12 | -0.22 | 5.41
O=[N+]([O-])c1cccc2c3ccccc3c3ccccc3c12 |  | 5.41
O=[N+]([O-])c1ccc2c3c(c4c([N+](=O)[O-])ccc5ccc1c2c54)CCCC3 | 2.41 | 6.01
O=C(/C=C/c1ccccc1)c1ccc([N+](=O)[O-])cc1 | -1.15 | 2.83
O=[N+]([O-])c1ccc2c3ccccc3c3cccc4ccc1c2c43 |  | 5.87
Cn1ncc2cc([N+](=O)[O-])ccc21 | -0.82 | 1.77
NC(=O)N/N=C/c1ccc([N+](=O)[O-])o1 [NITROFURAZONE] | 1.02 | 0.23
N#Cc1ccc2c(c1)Cc1cc([N+](=O)[O-])ccc1-2 | 2.51 | 3.4
O=[N+]([O-])c1cc2c3c(cc([N+](=O)[O-])c([N+](=O)[O-])c3c1)-c1ccccc1-2 | 3.44 | 4.18
O=[N+]([O-])c1ccc2c(c1)NCC2 | -0.48 | 1.92
COc1cc([N+](=O)[O-])c2ncccc2c1 | -1.21 | 1.87
O=[N+]([O-])c1ccc2oc3ccccc3c2c1 | 1.64 | 3.83
Cc1ccccc1-c1ccc([N+](=O)[O-])cc1 | -0.23 | 4.27
O=[N+]([O-])c1cc(F)ccc1F | -0.79 | 1.89
O=[N+]([O-])c1ccc2c(c1)CC=C2 | 0.96 | 2.74
O=[N+]([O-])c1ccc2ccccc2c1 |  | 3.24
O=[N+]([O-])c1cc2c3c(ccc4cc([N+](=O)[O-])cc(c43)CC2)c1 | 4.25 | 4.73
Cc1c([N+](=O)[O-])ccc2ccccc12 | -0.7 | 3.43
O=[N+]([O-])c1cccc2cc[nH]c12 |  | 2.13
O=[N+]([O-])c1c(O)cc2cccc3c2c1-c1ccccc1-3 | 2.26 | 4.66
Nc1ccc([N+](=O)[O-])cc1[N+](=O)[O-] | -1.74 | 1.84
Nc1ccccc1-c1cccc([N+](=O)[O-])c1 | -1.52 | 2.68
Nc1ccc(-c2ccc([N+](=O)[O-])cc2)cc1 |  | 2.68
O=[N+]([O-])c1cc(O)c2ccc3cccc4ccc1c2c34 | 3.87 | 4.66

Compound | Activity (Salmonella typhimurium) | logP [1]
O=[N+]([O-])c1ccc(Cl)c(Cl)c1Cl | -2.94 | 3.61
O=[N+]([O-])c1ccc2c3cccc4cccc(c5cccc1c52)c43 |  | 5.87
O=C1CN(/N=C/c2ccc([N+](=O)[O-])o2)C(=O)N1 [NITROFURANTOIN] | 1.03 | 
Nc1ccc([N+](=O)[O-])cc1N | 0.63 | 0.88
O=[N+]([O-])c1ccc2ccc3c4c(cc5ccc1c2c53)C(O)C(O)C=C4 (stereo not drawn) | 3.08 | 3.01
O=[N+]([O-])c1c2ccccc2cc2c1ccc1ccccc12 | -0.52 | 5.41
O=[N+]([O-])c1ccc2ccc3cccc4c5c(c1c2c34)CCCC5 | 0.7 | 6.26
O=[N+]([O-])c1ccc2ncccc2c1 | -1.08 | 1.84
O=[N+]([O-])c1cccc2cccc([N+](=O)[O-])c12 | 0.9 | 2.52
O=[N+]([O-])c1cc2c3c(c1)CCc1cccc(c1-3)CC2 | 1.58 | 5.28
CC(=O)Oc1ccc2c(c1)Cc1cc([N+](=O)[O-])ccc1-2 | 1.86 | 3.46
O=Cc1ccccc1[N+](=O)[O-] [2-NITROBENZALDEHYDE] | -1.92 | 
O=[N+]([O-])c1ccc2c3c(cccc13)CC2 | 0.58 | 3.85
O=C1c2ccccc2-c2cc([N+](=O)[O-])ccc21 | 2.13 | 3.06
Nc1ccc([N+](=O)[O-])cc1O | -2.4 | 1.36
O=[N+]([O-])c1cc2c3c(ccc4cccc(c43)CC2)c1 | 3.27 | 4.99
O=[N+]([O-])c1cccc(Cl)c1 |  | 2.41
O=[N+]([O-])C1=Cc2ccc3ccc4cccc5cc1c2c3c45 | 0.77 | 4.35
Nc1ccccc1-c1ccc([N+](=O)[O-])cc1 | -1.7 | 2.68
O=[N+]([O-])c1cc2c3c(ccc([N+](=O)[O-])c3c1)-c1ccccc1-2 | 3.78 | 4.44
O=[N+]([O-])c1cccc2cccnc12 |  | 1.44
O=[N+]([O-])c1cc([N+](=O)[O-])c2ccc3cccc4ccc1c2c43 | 5.04 | 4.44
CC(=O)Oc1cc([N+](=O)[O-])c2ccc3cccc4ccc1c2c43 | 4.22 | 4.42
O=[N+]([O-])c1cccc2c1-c1cccc3cccc-2c13 | 1.87 | 4.69
O=C1NCCN1c1ncc([N+](=O)[O-])s1 [NIRIDAZOLE] | 2.59 | 0.95
O=[N+]([O-])c1c(Cl)cc2c(c1Cl)Oc1cc(Cl)c(Cl)cc1O2 | -1.4 | 7.13

Compound | Activity (Salmonella typhimurium) | logP [1]
O=[N+]([O-])c1c2cccc(O)c2cc2c1ccc1ccccc12 |  | 5.06
O=[N+]([O-])c1cc2ccc3cc([N+](=O)[O-])cc4ccc(c1)c2c34 |  | 4.44
Cc1ncc([N+](=O)[O-])n1CCO [METRONIDAZOLE] |  | -0.02
O=[N+]([O-])c1ccc2cccc3c2c1-c1ccccc1-3 |  | 4.69
CN1CCc2cc([N+](=O)[O-])ccc21 |  | 2.86
O=[N+]([O-])c1cccc(F)c1 |  | 1.9
O=[N+]([O-])c1c2c(cc3ccccc13)C=CC(O)C2O (stereo not drawn) |  | 1.38
O=C1c2cc([N+](=O)[O-])ccc2-c2ccc([N+](=O)[O-])cc21 |  | 2.84
Cn1ccc2cc([N+](=O)[O-])ccc21 |  | 2.5
O=[N+]([O-])c1cc2cccc3ccc4cccc1c4c32 |  | 4.69
CC(=O)c1ccc([N+](=O)[O-])cc1 |  | 1.53
O=[N+]([O-])c1c2c(cc3c1ccc1ccccc13)C=CC(O)C2O (stereo not drawn) |  | 2.55
O=[N+]([O-])c1c2ccccc2cc2c3c(ccc12)C(O)C(O)C=C3 (stereo not drawn) |  | 2.55
O=[N+]([O-])c1ccc(/C=C/c2ccccc2)cc1 |  | 4.18
O=[N+]([O-])c1ccc(Cl)c(Cl)c1 |  | 3.12
O=Cc1ccc([N+](=O)[O-])cc1 |  | 1.56
O=[N+]([O-])c1ccc(Cl)cc1Cl |  | 3.09
O=C1OCCN1/N=C/c1ccc([N+](=O)[O-])o1 [FURAZOLIDONE] | 2.24 | 
O=[N+]([O-])c1ccc2nc3ccccc3nc2c1 |  | 2.52
O=[N+]([O-])c1ccccc1F |  | 1.69
O=[N+]([O-])c1ccc2c(c1)CCN2 |  | 2.07
Cn1ccc2cccc([N+](=O)[O-])c21 |  | 2.5
O=[N+]([O-])c1ccc2ccc3cccc4c5ccccc5c1c2c34 |  | 5.87
O=[N+]([O-])c1c2c(c3ccc4cccc5ccc1c3c45)CCCC2O (stereo not drawn) |  | 4.78
O=[N+]([O-])c1ccc(Cl)cc1 |  | 2.39
